Experiment [1] relates to insects. As to conditions: fumigation of the grain; cited from earlier work.
The test system of experiment [2] is mold, fungus, and some bacteria. As to conditions: fumigation of the grain; cited from earlier work.
Experiment [3] relates to mold, bacteria, and fungus. The experiment in a line: ozonation of grain stored in an elevator: treatment of mold, bacteria and fungus. The source says: (§1) It is an object of some embodiments of the present invention to provide a method for treating grain for fungus, mold, bacteria, dust, and insects by exposing the grain to a high concentration of ozone for an extended period of time. The present invention utilizes a powerful fan or fans placed at the bottom of the grain storage facility such as, for example, a silo or grain elevator to draw down through the grain a flow of gas containing ozone between 50 and 100 ppm. Ozone generators placed in the head space at the top of the elevator produce ozone in a concentration in excess of 100 ppm. Monitors placed in this head space assure that the ozone concentration remains at these levels. If the ozone generators are not capable of maintaining the concentration at 100 ppm in the head space, then the draw is reduced by slowing the fan speed. A duct takes drawn gases from the bottom of the elevator and re-circulates those gases into the head space to reduce the amount of ozone needed to be generated during a second pass. To assure that the gases come in contact with all of the grain in the elevator, a technique labeled “pulling the core” is utilized wherein a quantity of grain is removed from the bottom of the elevator at its center to remove a column of grain from the core of the column of grain thereby evenly distribute the grain within the elevator. The material which is pulled from the core is then sent back to the top of the column and evenly distributed across the top.
(§2) The following discussion is directed towards grain stored within a vertical elevator 10. […] In one embodiment, a quantity of ozone is injected into a grain bin, vessel, or truck prior to the grain being loaded into said container in order to treat the grain for mold, bacteria, fungi, and biological load as the grain is loaded. […] In this embodiment, the loading bin is partially enclosed and has injected therein a sufficient quantity of ozone to create a concentration of approximately 100 ppm within the loading bin and the enclosed auger. […]

The test system of experiment [4] is insects. The experiment in a line: ozonation of grain stored in an elevator: killing of insects.
Source text: as §1, §2

Setting [5] is: flow of gas containing ozone between 50 and 100 ppm.
Setting [6] is: ozone concentration maintained for three days.
Where [7] appears, read: ozone drawn through grain, over 100 ppm in head space, 50 ppm at bottom of column.

With `CBr` [methyl bromide], the “effect of fumigation on insects” value in the experiment with insects [1] is on record as “effective at killing insects”. The “effect of fumigation on mold, fungus and some bacteria” value in experiment [2] is on record as “not been effective”.

In the case of `P` [phosphine], in the experiment with insects [1], the “effect of fumigation on insects” value is on record as “effective at killing insects”. For the same compound, the “effect of fumigation on mold, fungus and some bacteria” value in experiment [2] was “not been effective”.

In the case of `O=[O+][O-]` [ozone], in experiment [3] (setting [5]), the “time within which mold and bacteria begin to die” value is “twenty-four”. Moreover, in experiment [3] (setting [6]), the “destruction of mold, bacteria and fungus” value was “almost all insect, mold, bacteria, and fungus will be destroyed”. Moreover, in experiment [3] (setting [7]), the “time after which smell from mold and fungus disappears” value stood at 24 h. For the same compound, the “time within which some insects begin to die” value with insects [4] (setting [5]) was “twenty-four”. Further, the destruction of insects result with insects [4] (setting [6]) was “almost all insect, mold, bacteria, and fungus will be destroyed”. Besides, the “exposure after which some insects are killed” value with insects [4] (setting [7]) was 12 h.

(Values after patent US7138145B2, “Method and apparatus for ozination of grain” (priority 2001, dated 2006).)
